Earlier results, collected in US20080152704A1, “Dosage Forms of Palonosetron Hydrochloride Having Improved Stability and Bioavailability” (priority 2006, published 2008).

Assays:
5-HT3 receptor = target: T1, 5-HT3 receptor (Homo sapiens, UniProt P46098)
T1 sequence (P46098 24-478): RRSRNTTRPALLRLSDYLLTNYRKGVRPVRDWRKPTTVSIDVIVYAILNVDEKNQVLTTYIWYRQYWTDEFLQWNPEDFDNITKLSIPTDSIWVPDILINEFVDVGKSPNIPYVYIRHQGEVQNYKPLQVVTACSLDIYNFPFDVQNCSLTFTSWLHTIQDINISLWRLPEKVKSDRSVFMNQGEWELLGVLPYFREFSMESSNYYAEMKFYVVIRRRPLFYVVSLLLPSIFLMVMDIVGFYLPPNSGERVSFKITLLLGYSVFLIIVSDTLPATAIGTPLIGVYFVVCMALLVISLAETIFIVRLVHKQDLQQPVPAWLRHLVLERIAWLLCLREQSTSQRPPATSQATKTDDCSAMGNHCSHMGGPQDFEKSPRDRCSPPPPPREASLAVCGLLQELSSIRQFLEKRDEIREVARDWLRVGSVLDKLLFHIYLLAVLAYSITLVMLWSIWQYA

Compound: Cl.O=C1c2cccc3c2[C@H](CCC3)CN1[C@@H]1CN2CCC1CC2 [Palonosetron, (3aS)-2-[(S)-1-Azabicyclo [2.2.2]oct-3-yl]-2,3,3a,4,5,6-hexahydro-1-oxo-1Hbenz[de] isoquinoline hydrochloride]
- affinity as an antagonist for the 5-HT3 receptor (5-HT3 receptor): high affinity
- affinity for other receptors such as dopamine receptors (dopamine receptors): low affinity
